What was measured:
[1] = Luciferase reporter with 3′UTR of target gene after lipid-mediated small RNA delivery; assay type: cell-based; conditions: FIG. 13; mutated 3′UTR
[2] = system: Luciferase with the wild-type 3′UTR in the target gene; assay: as above; assay type: cell-based; conditions: FIG. 13; wild-type 3′UTR
[3] = In vivo delivery of lipid nucleic acid mixture by gavage, RT-qPCR in blood and lung; design: species or system C57 mice; conditions: FIG. 14, 6 hours, whole blood and lung
Method: 1. Preparation of lipid nucleic acid mixture: the mixture of lipid No. 11 or No. 12 with nucleic acid, and the mixture of the lipid combination of No. 1/2/4/9/14/18/19/20/21/22/23/24/25/26/27/28/29/30/32, No. 3/8/10/11/12/13, and No. 6/15/16/17/31 with nucleic acid were prepared by reverse evaporation and boiling method (refer to steps 2.1-2.2).
2. Gavage were performed on 6-8 weeks old male C57 mice: 200 μl/aminal, grouped as follows:
3. Sample collection: 6 hours after gavage, mouse whole blood (500 μl) and lung (110 mg) were collected by 1.5 mL TRIzol-LS or 3 mL TRIzol, respectively, homogenized and then frozen under −80° C. for storage.
4. […]

MRC-5 cells = assay: Western blot of fibronectin/α-SMA after lipid-mediated delivery of anti-fibrotic HJT-sRNA, TGF-β1 stimulation; assay type: cell-based; conditions: FIG. 102; nucleic acid 400 nM; TGF-β1 3 ng/mL, 72 hours
Method: (§1) 3.3 Western blot detection of protein expression levels 3.3.1 MRC-5 cell (pulmonary embryonic fibroblast), and A549 cell (human lung adenocarcinoma cell) were cultured to logarithmic growth phase, and then plated into 12-well plates at a cell density of 6×10^5/1 mL medium/well; MRC-5 cells were cultured in Eagle's MEM medium (MEM, Gibco); A549 cells were cultured in Ham's F-12 medium (HyClone); followed by incubation overnight at 37° C., and the follow-up experiments were performed after the cells were attached to the walls.
(§2) 4) Lipid nucleic acid mixture: the mixture of lipid and nucleic acid prepared from the step 2 were added into cells and mixed, and the final concentration of nucleic acid was 400 nM.
(§3) 3.3.3 After 24 hours of treatment, the cells were stimulated with the stimulant (1 μg/mL poly (I:C) (P1530, Sigma-Aldrich) as double-stranded RNA viruses mimetics) or 3 ng/mL transforming growth factor TGF(31 (Pepro Tech)). […]

A549 cells = assay: Western blot of knockdown protein after lipid-mediated siRNA delivery; assay type: cell-based, human; conditions: FIG. 82; reverse evaporation method; LAMP2, XPN2, Ssu72, CPSF4 or β-actin siRNA 400 nM
Method: as §1, §2, §3

[4] = In vivo intragastric delivery of small RNA with lipid No. 41, samples after 6 hours; design: species or system mice; conditions: each small RNA 1 nmol/animal
Method: [Experimental method] 6-8 weeks old mice, 22-24 g, were raised in SPF room of the Animal Center of the Institute of Basic Medical Sciences of Chinese Academy of Medical Sciences. The mice were fasted for 12 hours before intragastric administration. The mice were randomly divided into 3 groups: (1) control group, 400 μl DEPC-treated water, intragastric administration; (2) free uptake group, small RNA (PGY-sRNA-26, PGY-sRNA-32 and PGY-sRNA-23), each small RNA 1 nmol/animal, dissolved in 400 μl DEPC-treated water, intragastric administration; (3) lipid No. 41 group: a mixture of small RNA (PGY-sRNA-26 and PGY-sRNA-32) and lipid No. 41 prepared by heating method was intragastrically administered, each small RNA 1 nmol/animal, lipid No. 41 10 μl/animal, dissolved in 400 μl DEPC-treated water. All tissue and organ samples were collected after 6 hours of intragastric administration. All small RNAs were single-stranded RNA modified by 3p- terminal 2-O-methylation.

CCCCC/C=C\C/C=C\CCCCCCCC(=O)O[C@H](COC(=O)CCCCCCCCCCCCCCCCC)COP(=O)([O-])OCC[N+](C)(C)C [No. 11, trimethyl(2-{[(2R)-2-[(9Z, 12Z)-octadeca-9,12-dienoyloxy]-3-(octadecanoyloxy)propyl-phosphonato]oxy}ethyl) azanium]
action on Luciferase with mutated 3′UTR [1]: did not act on the mutated 3′UTR of their target genes
relative expression level of Luciferase with wild-type 3′UTR [2]: reduced the relative expression level of the Luciferase with the wild-type 3′UTR in the target gene
entry of HJT-sRNA-m7 into blood and lung [3]: could promote entry of small fragments of nucleic acids into the blood and lung

CCCCCCCC/C=C\CCCCCCCCCCCC(=O)O[C@H](COC(=O)CCCCCCCCCCCCCCC)COP(=O)(O)OCCN [No. 40, (2-aminoethoxy) [(2R)-2-[(13Z)-docos-13-enoyloxy]-3-(hexadecanoyloxy)propoxy] phosphinic acid]
fibronectin protein expression after delivery of double-stranded HJT-sRNA-m7 (Western blot) (MRC-5 cells): mediated anti-fibrotic double-stranded RNA HJT-sRNA-m7 entry into MRC-5 cells to down-regulate fibronectin protein expression

CCCCCCCCCCCCCCCCCCC[C@@H](O)[C@@H](N)CO [No. 41, Sphinganine (d22:0)]
protein knockdown effect of delivered siRNA vs RNAiMAX (Western blot) (A549 cells): significantly higher than the inhibitory effect of HJT-sRNA-m7 mediated by RNAiMAX
entry of small RNA into the blood ([4]; FIG. 108, lipid 10 μl/animal): could promote the entry of small RNA into the blood, protecting it from degradation in the blood
entry of small RNA into the stomach cells ([4]; FIG. 109, lipid 10 μl/animal): could promote the entry of small RNA into the stomach cells, protecting it from degradation in the stomach
entry of small RNA into small intestinal cells ([4]; FIG. 110, lipid 10 μl/animal): could promote the entry of small RNA into small intestinal cells, protecting it from degradation in the small intestine
entry of small RNA into the liver ([4]; FIG. 111, lipid 10 μl/animal): could promote the entry of small RNA into the liver, protecting it from degradation in the liver

CCCCC/C=C\C/C=C\CCCCCCCC(=O)O[C@H](COC(=O)CCCCCCCCCCCCCCC)COP(=O)([O-])OCC[N+](C)(C)C [No. 12, (2-{[(2R)-3-(hexadecanoyloxy)-2-[(9Z,12Z)-octadeca-9,12-dienoyloxy]propylphosphonato]oxy}ethyl) trimethylazanium]
action on Luciferase with mutated 3′UTR [1]: did not act on the mutated 3′UTR of their target genes
relative expression level of Luciferase with wild-type 3′UTR [2]: reduced the relative expression level of the Luciferase with the wild-type 3′UTR in the target gene
entry of HJT-sRNA-m7 into blood and lung [3]: could promote entry of small fragments of nucleic acids into the blood and lung
